The target of the test is T1, chicken gizzard smooth muscle myosin subfragment-1 chemically crosslinked to cardiac or skeletal actin (Gallus gallus, UniProt P10587).
T1 construct: chicken gizzard smooth muscle myosin subfragment-1; from tissue; host or cells: chicken gizzard
The experiment in a line: Smooth muscle myosin ATPase dose response assay (pyruvate kinase/horseradish peroxidase/pyruvate oxidase-coupled, amplex red fluorescence). To be noted: read-out: IC50 Arithmetic Mean. It is filed as biochemical. Put shortly: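 Lead-optimization format: ATPase coupled via pyruvate kinase, pyruvate oxidase and peroxidase, pH 7.00 at 22° C, with 0.15 mM ATP, 100 mM KCl, 2 mM MgCl2, 2 mM phosphate and 0.1 mM amplex red (final). Crosslinked S1 titrated empirically for set hydrolysis rate; fluorescence (ex 480/em 615 nm) dose curves fit 4-parameter for IC50.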

pIC50: −log10 of the molar value.

T1 sequence (P02607 2-151): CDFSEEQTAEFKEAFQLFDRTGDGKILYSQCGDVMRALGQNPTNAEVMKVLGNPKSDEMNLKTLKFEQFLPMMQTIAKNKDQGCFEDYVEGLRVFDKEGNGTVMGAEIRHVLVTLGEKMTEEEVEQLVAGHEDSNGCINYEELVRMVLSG
T1 sequence (P10587 84-789): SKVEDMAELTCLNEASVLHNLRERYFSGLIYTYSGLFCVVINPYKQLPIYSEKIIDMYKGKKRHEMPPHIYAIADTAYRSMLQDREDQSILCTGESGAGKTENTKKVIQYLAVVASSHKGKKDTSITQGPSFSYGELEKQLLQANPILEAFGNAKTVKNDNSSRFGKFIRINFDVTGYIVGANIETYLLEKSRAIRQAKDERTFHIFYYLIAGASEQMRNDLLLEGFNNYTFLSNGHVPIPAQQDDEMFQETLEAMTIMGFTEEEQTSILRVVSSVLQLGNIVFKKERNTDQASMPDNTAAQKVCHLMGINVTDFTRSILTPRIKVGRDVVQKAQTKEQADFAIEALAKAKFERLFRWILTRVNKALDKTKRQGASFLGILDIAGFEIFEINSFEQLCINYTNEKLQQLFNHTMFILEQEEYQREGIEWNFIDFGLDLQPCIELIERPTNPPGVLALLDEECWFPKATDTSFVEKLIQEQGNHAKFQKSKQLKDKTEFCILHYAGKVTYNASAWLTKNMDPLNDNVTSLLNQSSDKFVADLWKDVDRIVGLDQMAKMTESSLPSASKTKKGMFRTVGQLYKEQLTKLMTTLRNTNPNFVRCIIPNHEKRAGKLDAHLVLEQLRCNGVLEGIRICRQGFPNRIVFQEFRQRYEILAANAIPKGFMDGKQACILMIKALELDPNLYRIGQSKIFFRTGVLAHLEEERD

As to `N#Cc1ccccc1-c1ccc(C(=O)NCCNS(=O)(=O)CCN)c(NCCc2cccc(F)c2)n1` [N-(2-{[(2-aminoethyl)sulfonyl]amino}ethyl)(6-(2-cyanophenyl)-2-{[2-(3-fluorophenyl)ethyl]amino}(3-pyridyl))carboxamide], the pIC50 is 5.81.

For `N#Cc1ccccc1-c1ccc(C(=O)NC(CCN)C(N)=O)c(NCCc2cccc(F)c2)n1` (stereo not drawn) [N-(3-amino-1-carbamoylpropyl)(6-(2-cyanophenyl)-2-{[2-(3-fluorophenyl)ethyl]amino}(3-pyridyl))carboxamide], the pIC50 was 5.72.

Turning to `N#Cc1ccccc1-c1ccc(C(=O)NCC(CN)C(N)=O)c(NCCc2cccc(F)c2)n1` (stereo not drawn) [N-(3-amino-2-carbamoylpropyl)(6-(2-cyanophenyl)-2-{[2-(3-fluorophenyl)ethyl]amino}(3-pyridyl))carboxamide], the pIC50 is 5.18.

Consider `N#Cc1ccccc1-c1ccc(C(=O)NCC(O)CN)c(NCCc2cccc(F)c2)n1` (stereo not drawn) [N-(3-amino-2-hydroxypropyl)(6-(2-cyanophenyl)-2-{[2-(3-fluorophenyl)ethyl]amino}(3-pyridyl))carboxamide], for which the pIC50 was 5.32.

Take `Cn1cc(-c2nc(NCCc3cccc(F)c3)c(C(=O)NCCCN)cc2F)cn1` [N-(3-aminopropyl)(5-fluoro-2-{[2-(3-fluorophenyl)ethyl]amino}-6-(1-methylpyrazol-4-yl)(3-pyridyl))carboxamide]: the pIC50 is 5.40.

`N#Cc1ccccc1-c1ccc(C(=O)NCCCN)c(NCCc2cccc(F)c2)n1` [N-(3-aminopropyl)(6-(2-cyanophenyl)-2-{[2-(3-fluorophenyl)ethyl]amino}(3-pyridyl))carboxamide]: the pIC50 was 6.00.

On to `N#Cc1ccccc1-c1ccc(C(=O)NCCCC(N)=O)c(NCCc2cccc(F)c2)n1` [N-(3-carbamoylpropyl)(6-(2-cyanophenyl)-2-{[2-(3-fluorophenyl)ethyl]amino}(3-pyridyl))carboxamide], for which the pIC50 is 6.73.

As for `O=C(NCc1cccnc1)c1ccc(-c2ccccn2)nc1NCCc1ccccn1` [N-(3-pyridylmethyl){6-(2-pyridyl)-2-[(2-(2-pyridyl)ethyl)amino](3-pyridyl)}carboxamide], the pIC50 was 5.27.

As for `O=C(NCc1cccnc1)c1ccc(-c2cccnc2)nc1NCCc1ccccn1` [N-(3-pyridylmethyl){6-(3-pyridyl)-2-[(2-(2-pyridyl)ethyl)amino](3-pyridyl)}carboxamide], the pIC50 is 4.72.

Consider `O=C(NCc1cccnc1)c1ccc(-c2ccncc2)nc1NCCc1ccccn1` [N-(3-pyridylmethyl){6-(4-pyridyl)-2-[(2-(2-pyridyl)ethyl)amino](3-pyridyl)}carboxamide], for which the pIC50 is 5.18.

Take `N#Cc1ccccc1-c1ccc(C(=O)NC(CCCN)C(N)=O)c(NCCc2cccc(F)c2)n1` (stereo not drawn) [N-(4-amino-1-carbamoylbutyl)(6-(2-cyanophenyl)-2-{[2-(3-fluorophenyl)ethyl]amino}(3-pyridyl))carboxamide]: the pIC50 was 6.23.

On to `N#Cc1ccccc1-c1ccc(C(=O)NCCCCN)c(NCCc2cccc(F)c2)n1` [N-(4-aminobutyl)(6-(2-cyanophenyl)-2-{[2-(3-fluorophenyl)ethyl]amino}(3-pyridyl))carboxamide], for which the pIC50 was 6.38.

With `CC(=O)Nc1ccc(-c2ccc(C(=O)NCc3cccnc3)c(NCCc3ccccn3)n2)cc1` [N-(4-{6-[(2-(2-pyridyl)ethyl)amino]-5-[N-(3-pyridylmethyl)carbamoyl]-2-pyridyl}phenyl)acetamide], the pIC50 was 5.91.

Turning to `N#Cc1ccccc1-c1ccc(C(=O)NCCCCCN)c(NCCc2cccc(F)c2)n1` [N-(5-aminopentyl)(6-(2-cyanophenyl)-2-{[2-(3-fluorophenyl)ethyl]amino}(3-pyridyl))carboxamide], the pIC50 was 6.81.

In the case of `N#Cc1ccccc1-c1ccc(C(=O)NCCCCCCN)c(NCCc2cccc(F)c2)n1` [N-(6-aminohexyl)(6-(2-cyanophenyl)-2-{[2-(3-fluorophenyl)ethyl]amino}(3-pyridyl))carboxamide], the pIC50 is 5.91.

The record behind these values is patent publication US7932270B2 (Cytokinetics, Inc., priority 2006, dated 2011).
